Laboratory results reported in patent US20030153538A1, “Antitumor agent” (The Nisshin OilliO, Ltd., priority 2000, published 2003).
Like-named read-outs stand apart in the source and are kept apart here.

Columns and labels:
B-16 melanoma cells = assay: Tests for tumor cell-proliferation-inhibitory effect and tumor cell-extinction (cell growth rate from viable cell count); format: cell-based; conditions: for tumor cell-killing effect (in words): at not less than 2 times the concentration required for proliferation inhibition; for tumor cell-proliferation-inhibitory effect (in words): summary of Table 1
Method: The tumor cell-proliferation-inhibitory effect and the tumor cell-killing or extinction effect can be determined according to the following method using B-16 melanoma cells.
More specifically, B-16 melanoma cells are inoculated in each well of a 6-well plate in a desired amount, followed by allowing the plate to stand at 37° C. and 5% carbon dioxide concentration to thus cultivate the cells, adding a sample solution to be tested (maslinic acid, erythrodiol, ursolic acid, uvaol, betulinic acid, betulin and physiologically acceptable salts thereof or derivatives thereof) to each well in an amount sufficient for achieving a desired concentration, on the next day or after 5 days from the initiation of the cultivation, determination of viable cell count on the 6th day after the initiation of the cultivation and calculation of the cell growth rate based on the viable cell count to thus evaluate the tumor cell-proliferation-inhibitory effect and the tumor cell-killing effect.
Tests for determining the tumor cell-proliferation-inhibitory effect and the tumor cell-killing effect were conducted according to the following method. To a 6-well plate, a culture medium was dispensed in an amount of 2 mL/well, B-16 melanoma cells were then inoculated in a desired quantity and thereafter the melanoma cells were cultivated by allowing the plate or the culture medium to stand at 37° C. and a carbon dioxide concentration of 5%. On the following day, a test sample solution prepared was added to and admixed with the content of each well to a desired concentration and the cultivation of the melanoma cells was continued. The culture medium was then exchanged on the 5th day from the initiation of the cultivation and the test sample solution was again added to each well. On the next day, the culture medium was removed to recover the cultivated melanoma cells, followed by washing the cells with PBS (phosphate buffered saline), determination of the viable cell count, and then calculation of the cell growth rate according to the following equation 1. The tumor cell-proliferation-inhibitory effect and the tumor cell-killing effect of each test sample were evaluated on the basis of the cell growth rate thus determined.
Cell Growth Rate (%)=(A/B)×100
As comparative examples, oleanolic acid, β-amyrin, α-amyrin and lupeol were added to the culture medium to thus determine and evaluate the cell growth rate by the same method used above.

B16 melanoma cells = assay: Test for malignant melanoma metastasis-inhibitory effect (lung metastasis after i.v. injection of B16 melanoma cells); format: in vivo, Whister female rats; conditions: rats; for tumor cell-metastasis-inhibitory effect compared with the control group (in words): metastasis of cancer to lung, summary of Table 2; for RMI (rate of metastasis-inhibition): every other day, lung lesions on 15th day
Method: The tumor cell-metastasis-inhibitory effect can be evaluated according to, for instance, the malignant melanoma metastasis-inhibitory test. More specifically, a suspension of B16 melanoma cells prepared in advance is intravenously injected into Whister female rats, cotton seed oil in which each test substance is dissolved in a predetermined concentration is intraperitoneally administered through injection or orally administered using a sonde, every second day starting from 2nd day after the intravenous injection of the suspension. In this connection, only cotton seed oil is administered to the control group of animals. The lungs are extracted from these animals on the 15th day after the injection of the B16 melanoma cells, the lungs are examined to determine the number of cancer lesions thus metastasized to thus calculate the rate of metastasis-inhibition. The tumor cell-metastasis-inhibitory effect of each test sample is evaluated on the basis of the resulting rate of metastasis-inhibition.
Tests for evaluating the malignant melanoma metastasis-inhibitory effect of each test sample were conducted according to the following method. Whister female rats (6-week-old; average body weight: 160 g) were preliminarily bred with a powdery feed preparation having a composition of AIN-93 for one week, these animals were divided into 5 groups (8 animals per group) so as to equalize the average body weight and then a previously prepared suspension of B16 melanoma cells was intravenously injected into each rat. Subsequently, these animals were bred with a powdery feed preparation having a composition of AIN-93 and cotton seed oil in which each of maslinic acid, erythrodiol, ursolic acid, uvaol, betulinic acid, betulin, compounds of Synthetic Examples 1 and 2, or oleanolic acid had been dissolved in a predetermined concentration was intraperitoneally injected into each animal or orally administered thereto using a sonde, every other day starting from the 2nd day after the injection of the B 16 melanoma cells. In this connection, only cotton seed oil was administered to the control group. On the 15th day after the injection of the B 16 melanoma cells, the lung of each animal was taken out, the lungs were examined to determine the number of cancer lesions thus metastasized and to thus calculate the rate of metastasis-inhibition in accordance with the following equation 2. The tumor cell-metastasis-inhibitory effect of each test sample could be evaluated on the basis of the resulting rate of metastasis-inhibition.
Rate of Metastasis-Inhibition (%)=[(D−C)/D]×100
Wherein C: Average number of cancer lesions metastasized observed in each animal group; and D: average number of cancer lesions metastasized observed in the control group.
Maslinic acid, erythrodiol, ursolic acid, uvaol, betulinic acid, betulin and physiologically acceptable salts thereof or derivatives thereof as well as cotton seed oil as the control were inspected for the rate of metastasis-inhibition (RMI) using the dose and administration methods specified in the following Table 2. In addition, the same procedures used above were repeated except for using oleanolic acid as a comparative sample to thus evaluate the rate of metastasis-inhibition (RMI) thereof.

[1] = 5 ppm, viable cell count vs control on 6th day
[2] = 10 ppm, viable cell count vs control on 6th day
[3] = 15 ppm, viable cell count vs control on 6th day
[4] = 20 ppm, viable cell count vs control on 6th day
[5] = 25 ppm, viable cell count vs control on 6th day
[6] = 30 ppm, viable cell count vs control on 6th day
[7] = 40 ppm, viable cell count vs control on 6th day
[8] = 50 ppm, viable cell count vs control on 6th day
[9] = Mus musculus, B16, 144 h, 15 ppm, viable cell count vs control on 6th day, read-out: Cell Growth Rate
[10] = Mus musculus, B16, 144 h, 25 ppm, viable cell count vs control on 6th day, read-out: Cell Growth Rate
[11] = Mus musculus, B16, 144 h, 50 ppm, viable cell count vs control on 6th day
[12] = 100 mg/body wt. (kg), Oral Adm.

CC(=O)OCC12CCC(C)(C)CC1C1=CCC3C4(C)CCC(OC(C)=O)C(C)(C)C4CCC3(C)C1(C)CC2 (stereo not drawn) [Comp. Of Synthetic Ex. 5, 3,28-O-di-acetyl-erythrodiol]
Cell Growth Rate (B-16 melanoma cells; [1]): 68% | Cell Growth Rate (B-16 melanoma cells; [2]): 50% | Cell Growth Rate (B-16 melanoma cells; [3]): 23% | Cell Growth Rate (B-16 melanoma cells; [4]): 0% | Cell Growth Rate (B-16 melanoma cells; [5]): 0%

C[C@H]1[C@H](C)CC[C@]2(C)CC[C@]3(C)C(=CC[C@@H]4[C@@]5(C)CC[C@H](O)C(C)(C)[C@@H]5CC[C@]43C)[C@H]12 [α-Amyrin, α-amyrin, reference compound]
Cell Growth Rate (B-16 melanoma cells; [3]): 100% | Cell Growth Rate (B-16 melanoma cells; [4]): 100% | Cell Growth Rate (B-16 melanoma cells; [5]): 100% | Cell Growth Rate (B-16 melanoma cells; [6]): 100% | Cell Growth Rate (B-16 melanoma cells; [7]): 100% | Cell Growth Rate (B-16 melanoma cells; [8]): 100% | tumor cell-killing effect (in words) (B-16 melanoma cells): not observed | tumor cell-proliferation-inhibitory effect (in words) (B-16 melanoma cells): do not possess any tumor cell-proliferation-inhibitory effect at all

C=C(C)[C@@H]1CC[C@]2(C)CC[C@]3(C)[C@H](CC[C@@H]4[C@@]5(C)CC[C@H](O)C(C)(C)[C@@H]5CC[C@]43C)[C@@H]12 [Lupeol, lupeol, reference compound]
activity at 15 ppm (B-16 melanoma cells; [9]): 100% | activity at 20 ppm (B-16 melanoma cells; Mus musculus, B16, 144 h, 20 ppm, viable cell count vs control on 6th day, read-out: Cell Growth Rate): 100% | activity at 25 ppm (B-16 melanoma cells; [10]): 100% | activity at 30 ppm (B-16 melanoma cells; Mus musculus, B16, 144 h, 30 ppm, viable cell count vs control on 6th day): 100% | activity at 40 ppm (B-16 melanoma cells; Mus musculus, B16, 144 h, 40 ppm, viable cell count vs control on 6th day): 100% | activity at 50 ppm (B-16 melanoma cells; [11]): 100% | tumor cell-killing effect (in words) (B-16 melanoma cells): not observed | tumor cell-proliferation-inhibitory effect (in words) (B-16 melanoma cells): do not possess any tumor cell-proliferation-inhibitory effect at all

CC1(C)CC[C@]2(C(=O)O)CC[C@]3(C)C(=CC[C@@H]4[C@@]5(C)C[C@@H](O)[C@H](O)C(C)(C)[C@@H]5CC[C@]43C)[C@@H]2C1 [maslinic acid]
tumor cell-killing effect (in words) (B-16 melanoma cells): quite intensive tumor cell-killing effects | tumor cell-proliferation-inhibitory effect (in words) (B-16 melanoma cells): quite strong tumor cell-proliferation-inhibitory effects | tumor cell-metastasis-inhibitory effect compared with the control group (in words) (B16 melanoma cells): significantly (P<0.05) inhibit any metastasis of cancer to lung

C=C(C)[C@@H]1CC[C@]2(C(=O)OCC)CC[C@]3(C)[C@H](CC[C@@H]4[C@@]5(C)CC[C@H](O)C(C)(C)[C@@H]5CC[C@]43C)[C@@H]12 [Comp. Of Synthetic Ex. 8, betulinic acid ethyl ester]
Cell Growth Rate (B-16 melanoma cells; [1]): 96% | Cell Growth Rate (B-16 melanoma cells; [3]): 81% | Cell Growth Rate (B-16 melanoma cells; [5]): 69% | Cell Growth Rate (B-16 melanoma cells; [8]): 53%

CC1(C)CC[C@]2(C(=O)O)CC[C@]3(C)C(=CC[C@@H]4[C@@]5(C)C[C@@H](O)[C@H](O)C(C)(C)[C@@H]5CC[C@]43C)[C@@H]2C1 [Purified maslinic acid 2, maslinic acid]
activity at 5 ppm (B-16 melanoma cells; Mus musculus, B16, 144 h, read-out: Cell Growth Rate, 5 ppm, viable cell count vs control on 6th day): 75% | activity at 10 ppm (B-16 melanoma cells; Mus musculus, B16, 144 h, read-out: Cell Growth Rate, 10 ppm, viable cell count vs control on 6th day): 47% | activity at 15 ppm (B-16 melanoma cells; Mus musculus, B16, 144 h, read-out: Cell Growth Rate, 15 ppm, viable cell count vs control on 6th day): 11% | activity at 20 ppm (B-16 melanoma cells; Mus musculus, B16, 144 h, read-out: Cell Growth Rate, 20 ppm, viable cell count vs control on 6th day): 0% | activity at 25 ppm (B-16 melanoma cells; Mus musculus, B16, 144 h, read-out: Cell Growth Rate, 25 ppm, viable cell count vs control on 6th day): 0% | RMI (rate of metastasis-inhibition) (B16 melanoma cells; 50 mg/body wt. (kg), I.P. Adm.): 67.3% | RMI (rate of metastasis-inhibition) (B16 melanoma cells; [12]): 78.6%

CCOC(=O)[C@]12CC[C@@H](C)[C@H](C)[C@H]1C1=CC[C@@H]3[C@@]4(C)CC[C@H](O)C(C)(C)[C@@H]4CC[C@@]3(C)[C@]1(C)CC2 [Comp. Of Synthetic Ex. 6, ursolic acid ethyl ester]
Cell Growth Rate (B-16 melanoma cells; [1]): 79% | Cell Growth Rate (B-16 melanoma cells; [3]): 72% | Cell Growth Rate (B-16 melanoma cells; [5]): 58% | Cell Growth Rate (B-16 melanoma cells; [8]): 47%

C=C(C)[C@@H]1CC[C@]2(C(=O)O)CC[C@]3(C)[C@H](CC[C@@H]4[C@@]5(C)CC[C@H](O)C(C)(C)[C@@H]5CC[C@]43C)[C@@H]12 [Betulinic acid]
activity at 5 ppm (B-16 melanoma cells; Mus musculus, B16, 144 h, 5 ppm, viable cell count vs control on 6th day, read-out: Cell Growth Rate): 88% | activity at 15 ppm (B-16 melanoma cells; [9]): 77% | activity at 25 ppm (B-16 melanoma cells; [10]): 58% | activity at 50 ppm (B-16 melanoma cells; [11]): 38% | tumor cell-proliferation-inhibitory effect (in words) (B-16 melanoma cells): quite strong tumor cell-proliferation-inhibitory effects | RMI (rate of metastasis-inhibition) (B16 melanoma cells; [12]): 51.2% | tumor cell-metastasis-inhibitory effect compared with the control group (in words) (B16 melanoma cells): significantly (P<0.05) inhibit any metastasis of cancer to lung

2,3-O-di-triethylsilyl-maslinic acid triethylsilyl ester [Comp. Of Synthetic Ex. 3]
Cell Growth Rate (B-16 melanoma cells; [1]): 93% | Cell Growth Rate (B-16 melanoma cells; [2]): 75% | Cell Growth Rate (B-16 melanoma cells; [3]): 54% | Cell Growth Rate (B-16 melanoma cells; [4]): 21% | Cell Growth Rate (B-16 melanoma cells; [5]): 0%

CC(=O)OC[C@]12CC[C@@H](C)[C@H](C)[C@H]1C1=CC[C@@H]3[C@@]4(C)CC[C@H](OC(C)=O)C(C)(C)[C@@H]4CC[C@@]3(C)[C@]1(C)CC2 [Comp. Of Synthetic Ex. 7, 3,28-O-di-acetyl-uvaol]
Cell Growth Rate (B-16 melanoma cells; [1]): 85% | Cell Growth Rate (B-16 melanoma cells; [3]): 71% | Cell Growth Rate (B-16 melanoma cells; [5]): 54% | Cell Growth Rate (B-16 melanoma cells; [8]): 42%

CC1(C)CC[C@]2(C)CC[C@]3(C)C(=CC[C@@H]4[C@@]5(C)CC[C@H](O)C(C)(C)[C@@H]5CC[C@]43C)[C@@H]2C1 [β-Amyrin, β-amyrin, reference compound]
Cell Growth Rate (B-16 melanoma cells; [3]): 100% | Cell Growth Rate (B-16 melanoma cells; [4]): 100% | Cell Growth Rate (B-16 melanoma cells; [5]): 100% | Cell Growth Rate (B-16 melanoma cells; [6]): 100% | Cell Growth Rate (B-16 melanoma cells; [7]): 100% | Cell Growth Rate (B-16 melanoma cells; [8]): 100% | tumor cell-killing effect (in words) (B-16 melanoma cells): not observed | tumor cell-proliferation-inhibitory effect (in words) (B-16 melanoma cells): do not possess any tumor cell-proliferation-inhibitory effect at all

2,3-O-di-stearoyl-maslinic acid ethyl ester [Comp. Of Synthetic Ex. 4]
Cell Growth Rate (B-16 melanoma cells; [1]): 100% | Cell Growth Rate (B-16 melanoma cells; [2]): 82% | Cell Growth Rate (B-16 melanoma cells; [3]): 52% | Cell Growth Rate (B-16 melanoma cells; [4]): 13% | Cell Growth Rate (B-16 melanoma cells; [5]): 0%

C=C(C)[C@@H]1CC[C@]2(COC(C)=O)CC[C@]3(C)[C@H](CC[C@@H]4[C@@]5(C)CC[C@H](OC(C)=O)C(C)(C)[C@@H]5CC[C@]43C)[C@@H]12 [Comp. Of Synthetic Ex. 9, 3,28-O-di-acetyl-betulin]
Cell Growth Rate (B-16 melanoma cells; [1]): 100% | Cell Growth Rate (B-16 melanoma cells; [3]): 79% | Cell Growth Rate (B-16 melanoma cells; [5]): 68% | Cell Growth Rate (B-16 melanoma cells; [8]): 60%
